The text below walks through data of patent US9920014B2, “Selective inhibition of bacterial topoisomerase I” (THE FLORIDA INTERNATIONAL BOARD OF TRUSTEES MODESTO A. …, priority 2013, dated 2018).

Values after ≈ are worked out from the molar mass of the structure shown. Values joined by “and” are separate entries in the source; they are usually repeats but may differ in a detail not shown here. Equal entries are not always repeated.

Test [1] addresses T1, human DNA topoisomerase I (Homo sapiens, UniProt P11387).
T1 sequence (P11387 1-765): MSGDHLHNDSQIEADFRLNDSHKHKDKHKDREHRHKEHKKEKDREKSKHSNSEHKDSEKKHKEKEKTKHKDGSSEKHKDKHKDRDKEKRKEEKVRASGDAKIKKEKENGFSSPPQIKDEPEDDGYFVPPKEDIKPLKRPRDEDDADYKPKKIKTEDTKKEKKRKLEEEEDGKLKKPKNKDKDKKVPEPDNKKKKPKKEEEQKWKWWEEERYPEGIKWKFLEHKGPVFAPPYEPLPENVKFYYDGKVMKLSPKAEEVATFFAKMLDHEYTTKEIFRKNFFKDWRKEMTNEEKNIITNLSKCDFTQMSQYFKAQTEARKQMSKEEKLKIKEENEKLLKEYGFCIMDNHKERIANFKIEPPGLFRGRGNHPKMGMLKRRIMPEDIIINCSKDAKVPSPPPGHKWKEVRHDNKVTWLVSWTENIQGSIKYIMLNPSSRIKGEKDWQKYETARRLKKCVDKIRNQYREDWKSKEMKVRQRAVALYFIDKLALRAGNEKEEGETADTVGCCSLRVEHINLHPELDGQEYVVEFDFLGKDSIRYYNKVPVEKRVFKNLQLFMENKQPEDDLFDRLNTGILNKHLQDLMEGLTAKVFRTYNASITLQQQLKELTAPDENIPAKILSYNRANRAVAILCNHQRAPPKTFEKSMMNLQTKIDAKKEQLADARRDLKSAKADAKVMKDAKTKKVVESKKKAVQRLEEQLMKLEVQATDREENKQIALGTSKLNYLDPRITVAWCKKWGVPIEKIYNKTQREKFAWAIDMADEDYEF
Kind of test: Inhibition assay against human DNA topoisomerase I (plasmid relaxation, agarose gel). Type of test: biochemical. Particulars: for IC50: 2 units enzyme, supercoiled pBAD-GFPuv, 30 min 37° C., read-out: IC50 hTopo I; for supercoiled DNA template prevented from relaxation by human DNA topoisomerase I: 50 μM compound. The method, then:
Inhibition Assays Against Human DNA Topoisomerase I:
The inhibition assays were used to determine the activities of the newly synthesized compounds against Human DNA topoisomerase I. The reaction mixture (25 μl) contained 20 mM Tris-HCl at pH 7.9, 50 mM KAc, 10 mM Mg(Ac)2, 1 mM DTT, 1 μg/ml BSA, 250 ng of the supercoiled plasmid pBAD-GFPuv, 2 units of Human DNA topoisomerase I, and one of the compounds at a final concentration that ranges from 5 to 50 μM. All components were assembled on ice and incubated for 30 minutes at 37° C. After the incubation, the reactions were terminated by extraction with an equal volume of phenol. The topological state of the DNA samples was analyzed with 1% agarose gel electrophoresis in 1×TAE buffer, pH 7.8. Following electrophoresis, the agarose gel was stained with Ethidium Bromide, destained, and photographed under UV light. The intensity of DNA topoisomers was determined using KODAK 1D Image Analysis Software. The percentage of (−) supercoiled DNA was calculated from a comparison of the intensity of the (−) supercoiled band with the total intensity of all DNA topoisomers. The IC50 was calculated as the amount of the drug for which 50% of the DNA was in a (−) supercoiled state.

A further test concerns dA60.dT60 duplex. Kind of test: UV thermal denaturation of AT rich DNA duplex. It counts as binding. The settings on record: ligand 10 μM, DNA 1 μM/duplex, 10 mM sodium cacodylate, 0.1 mM EDTA, 100 mM NaCl, pH 7.0; for ΔTm (thermal stabilization): duplex alone 62.5° C. The method, then:
Nucleic acids were purchased from Integrated DNA Technologies (Coraville, Iowa). The concentration of the nucleic acid was determined using the extinction coefficient provided by the supplier. The DNA duplex was prepared by heating the dA60 and dT60 in equimolar ratio in buffer 10 mM sodium cacodylate, 0.1 mM EDTA and 100 mM NaCl at pH 7.0 at 95° C. for 15 minutes and then slowly allowing it to cool back to room temperature. After two days of incubation, the duplex formation was checked by UV thermal denaturation experiments. The stock solution was stored at 4° C. and diluted to desired concentrations as required.
Ultra Violet (UV) Thermal Denaturation Experiments:
All UV spectra were obtained on a 12 cell holder Cary 1E UV-Vis spectrophotometer equipped with temperature controller. Quartz cells with 1 cm path length were used for all the experiments. Spectrophotometer stability and wavelength alignment were checked prior to initiation of each thermal denaturation experiment. For all experiments, the samples were prepared by diluting a stock sample. The melting of DNA with and without the ligand was performed at a heating rate of 0.2° C./min. Samples were brought back to 20° C. after the experiment. All UV melting experiments were monitored at 260 nm. For the Tm determinations, derivatives were used. Data points were recorded every 1.0° C. The DNA concentration was 1 μM/duplex while the ligand concentration was 10 μM. All ligand solutions were prepared in dimethyl sulfoxide (DMSO) as concentrated stock solution (6-10 mM) and diluted to desired concentrations in buffer.
Bisbenzimidazoles are known to bind to the minor groove of AT rich DNA. The UV thermal denaturation experiments of the synthesized ligands were carried out with an AT rich DNA duplex. A 60 mer B-DNA duplex that was prepared by mixing equimolar amounts of a 60 mer homoadenine with a 60 mer homothymine polymer.

Another test deals with Escherichia coli K12. Kind of test: MIC by microbroth dilution, E. coli K12. Type of test: cell-based. Particulars: for MIC S5 = E. coli K 12: 24 h 37° C.; for MIC: Escherichia coli, K12, 24 h 37° C., read-out: MIC S5 = E. coli K 12. As for the experimental part: (§1) Minimum Inhibitory Concentration (MIC) Determination:
(§2) Bacteria used in this study were Staphylococcus aureus ATCC 29213, Escherichia coli ATCC 25922, Escherichia coli K12, Staphylococcus aureus ATCC 33591, Pseudomonas aeruginosa ATCC 27853, and Enterococcus faecalis ATCC 29212. All compounds were tested by the microbroth dilution method following Clinical and Laboratory Standards Institute guidelines. Briefly, Mueller-Hinton broth (Difco Laboratories, Becton Dickinson) was inoculated with each organism and incubated at 37° C. with shaking to establish logarithmic growth. Following incubation, each culture was pelleted by centrifugation (3,500×g for 5 min) and resuspended in 0.85% sterile saline solution to an optical density at 625 nm of 0.1. Samples were tested in triplicate using 96 well microplates (Corning Costar Corp. Cambridge, Mass.), yielding final bacterial concentrations of 5×10^5 CFU/mL, and incubated for 24 h at 37° C. Following incubation, optical densities of each well were determined with a μQuant microplate spectrophotometer (BioTek Instruments, Inc., Winooski, Vt.) at 625 nm.

For test [2], the system named is Enterococcus faecalis ATCC 29212. The experiment in a line: MIC by microbroth dilution, E. faecalis 29212. It counts as cell-based. The settings on record: for activity against E. faecalis 29212 (in words): comment on Table 4; for MIC S6 = E. faecalis 29212 / MIC: microbroth dilution, 24 h 37° C.; for MIC: Enterococcus faecalis, ATCC29212, read-out: MIC S6 = E. faecalis 29212. The method, then:
as §1, §2

For the compound `CCOc1ccc(-c2nc3ccc(-c4nc5ccc(N6CCN(C)CC6)cc5[nH]4)cc3[nH]2)cc1` [Hoechst 33342, reference compound], the half-inhibitory concentration (IC50) (commonly the concentration that inhibits the measured activity by half) in test [1] was > 50 µM. Further, in the test on dA60.dT60 duplex, the Tm (usually the temperature at the midpoint of the melting transition) was 86.6 °C and the “ΔTm (thermal stabilization)” value is ~24 °C. For the same compound, in the test with dA60.dT60 duplex (listed as Hoechst 33242), the “ΔTm (thermal stabilization)” value was determined as 24.1 °C. The “MIC S5 = E. coli K 12” value in the test with Escherichia coli K12 came out at 8 µg/mL (≈ 17.7 µM). In addition, in test [2], the “activity against E. faecalis 29212 (in words)” value (“activity” below) is reported as “not good inhibitors” and the “MIC S6 = E. faecalis 29212” value was in the range of 16 to 32 µg/mL.
With `C#CCCCCCCCCCOc1ccc(-c2nc3ccc(-c4nc5ccc(N6CCN(C)CC6)cc5[nH]4)cc3[nH]2)cc1` [DPA 153, 6-(4-methylpiperazin-1-yl)-2′-(4-(undec-10-ynyloxy)phenyl)-1H,3′H-2,5′-bibenzo[d]imidazole], the IC50 in test [1] was > 50 µM. For the same compound, in the test with dA60.dT60 duplex, the melting temperature (Tm) worked out at 70.5 °C and the “ΔTm (thermal stabilization)” value was determined as 8 °C. Moreover, the MIC (usually the lowest concentration found to suppress growth) in the test with Escherichia coli K12 was in the range of 8 to 16 µg/mL (≈ 13.9 to 27.8 µM). For the same compound, the MIC in test [2] is 16 to 32 µg/mL (≈ 27.8 to 55.7 µM).
As to `CN1CCN(c2ccc3[nH]c(-c4ccc5[nH]c(-c6ccc(O)cc6)nc5c4)nc3c2)CC1` [Hoechst 33258, reference compound], in test [1], the “supercoiled DNA template prevented from relaxation by human DNA topoisomerase I” value is listed as “about 70%” and the IC50 stood at 22.9 ± 1.55 µM. Moreover, in the test with dA60.dT60 duplex, the Tm amounted to 87.1 °C; the “ΔTm (thermal stabilization)” value was ~24 °C and 24.6 °C. Besides, in the test with Escherichia coli K12, the “MIC S5 = E. coli K 12” value turned out to be 16 µg/mL (≈ 37.7 µM). In test [2], the “activity” value is reported as “not good inhibitors” and the “MIC S6 = E. faecalis 29212” value fell in the range of 16 to 32 µg/mL.
On to `C#CCCCCOc1ccc(-c2nc3ccc(-c4nc5ccc(N6CCN(C)CC6)cc5[nH]4)cc3[nH]2)cc1` [DPA 152, 2′-(4-(hex-5-ynyloxy)phenyl)-6-(4-methylpiperazin-1-yl)-1H,3′H-2,5′-bibenzo[d]imidazole], for which the half-maximal inhibitory concentration (IC50) in test [1] is > 50 µM. Also, in the test with dA60.dT60 duplex, the Tm was 83.4 °C and the “ΔTm (thermal stabilization)” value came to 20.9 °C. Also, the MIC in the test with Escherichia coli K12 is 8 to 16 µg/mL (≈ 15.9 to 31.7 µM). For the same compound, in test [2], the minimum inhibitory concentration (MIC) was determined as 4 µg/mL (≈ 7.93 µM) and the “activity” value is on record as “markedly improved activity”.
As to `C#CCOCCCCOc1ccc(-c2nc3ccc(-c4nc5ccc(N6CCN(C)CC6)cc5[nH]4)cc3[nH]2)cc1` [DPA 154, 6-(4-methylpiperazin-1-yl)-2′-(4-(4-(prop-2-ynyloxy)butoxy)phenyl)-1H,3′H-2,5′-bibenzo[d]imidazole], the concentration for half-maximal inhibition (IC50) in test [1] is > 50 µM. In the test with dA60.dT60 duplex, the Tm worked out at 85.9 °C and the “ΔTm (thermal stabilization)” value stood at 23.4 °C. Moreover, the minimal inhibitory concentration (MIC) in the test on Escherichia coli K12 is 8 to 16 µg/mL (≈ 15 to 29.9 µM). In addition, the “activity” value in test [2] was “markedly improved activity”.
Turning to `C#CCOc1ccc(-c2nc3ccc(-c4nc5ccc(N6CCN(C)CC6)cc5[nH]4)cc3[nH]2)cc1` [DPA 151, 6-(4-methylpiperazin-1-yl)-2′-(4-(prop-2-ynyloxy)phenyl)-1H,3′H-2,5′-bibenzo[d]imidazole], in test [1], the “supercoiled DNA template prevented from relaxation by human DNA topoisomerase I” value is given as “about 70%” and the IC50 was 25.4 ± 2.2 µM. In the test with dA60.dT60 duplex, the Tm is 85.4 °C; the “ΔTm (thermal stabilization)” value is 22.9 °C and 23.9 °C. Further, the MIC with Escherichia coli K12 amounted to 8 µg/mL (≈ 17.3 µM). For the same compound, the MIC in test [2] lay in the range of 16 to 32 µg/mL (≈ 34.6 to 69.2 µM).
